Results as given in US9284283B2, “Macrocyclic compounds for modulating IL-17” (ENSEMBLE THERAPEUTICS CORPORATION, priority 2012, dated 2016).

tested on: IL-17A induced secretion of IL-6 in primary human RASF cells; experiment: Inhibition of IL17A induced secretion of IL6 in human rheumatoid arthritis synovial fibroblast (RASF) cells; type: cell-based; conditions: Homo sapiens, Fibroblast
Method in brief: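 Primary RASF cells (passage 2-8) stimulated 20 h at 37 °C with rhIL-17A (30 ng/mL) pre-incubated 1 h with compound (final 0.03-25 μM, 0.25% DMSO). Supernatant IL-6 measured by ELISA, normalized to WST1 viability; triplicates.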

Compound | IC50
CC1(C)CC(=O)NCCCCCNC(=O)CNC(=O)[C@@H](Cc2ccc(NC(=O)[C@@H](NC(=O)Cc3ccc(O)cc3)C3CCCCC3)cc2)NC(=O)C1 [Compound 253] | 1000 to 10000 nM
C[C@H]1NC(=O)[C@@H](Cc2ccc(NC(=O)[C@H](Cc3ccccc3Cl)NC(=O)c3cccnc3)cc2)NC(=O)CC2(CCCC2)CC(=O)NCCCCCNC1=O [Compound 353] | 1000 to 10000 nM
C[C@H]1NC(=O)[C@@H](Cc2ccc(NC(=O)[C@@H](NC(=O)Cc3ccccc3)C3CCCCC3)cc2)NC(=O)CC2(CCCC2)CC(=O)N[C@H](C(=O)O)CCCCNC1=O [Compound 369] | < 100 nM
O=C1CNC(=O)[C@@H](Cc2ccc(NC(=O)[C@H](Cc3ccccc3Cl)NC(=O)Cc3ccccc3)cc2)NC(=O)CC2(CCCC2)CC(=O)NCCNCCN1 [Compound 338] | > 10000 nM
COC(=O)[C@@H]1CCCCNC(=O)CNC(=O)[C@@H](Cc2ccc(NC(=O)[C@@H](NC(=O)c3cccnc3)C3CCCCC3)cc2)NC(=O)CC2(CCCC2)CC(=O)N1 [Compound 352] | > 10000 nM
O=C1CNC(=O)[C@@H](Cc2ccc(NC(=O)[C@H](Cc3ccccc3Cl)NC(=O)c3cccnc3)cc2)NC(=O)CC2(CCCC2)CC(=O)N[C@H](C(=O)O)CCCCN1 [Compound 266] | 100 to 1000 nM
O=C1CNC(=O)[C@@H](Cc2ccc(NC(=O)[C@H](Cc3ccccc3Cl)NC(=O)Cc3ccc(CO)cc3)cc2)NC(=O)CC2(CCCC2)CC(=O)NCCCCCN1 [Compound 218] | < 100 nM
C[C@H]1NC(=O)[C@@H](Cc2ccc(NC(=O)[C@H](Cc3ccccc3Cl)NC(=O)Cc3ccccc3)cc2)NC(=O)CC2(CCCC2)CC(=O)NCCCCCNC1=O [Compound 288] | < 100 nM
O=C1CC2(CCCC2)CC(=O)N[C@H](Cc2ccc(NC(=O)[C@H](Cc3ccccc3Cl)NC(=O)Cc3ccccc3)cc2)C(=O)N[C@H](Cc2ccccc2)C(=O)NCCCCCN1 [Compound 261] | 1000 to 10000 nM
O=C1CC2(CCCC2)CC(=O)N[C@H](Cc2ccc(NC(=O)[C@H](Cc3ccccc3Cl)NC(=O)Cc3ccccc3)cc2)C(=O)NCC(=O)N[C@H](C(=O)O)CCCCN1 [Compound 339] | 100 to 1000 nM
CN1CCNC(=O)CNC(=O)[C@@H](Cc2ccc(NC(=O)[C@H](Cc3ccccc3Cl)NC(=O)Cc3ccc(O)cc3)cc2)NC(=O)CC2(CCCC2)CC(=O)NCC1 [Compound 260] | 1000 to 10000 nM
C[C@H]1NC(=O)[C@@H](Cc2ccc(NC(=O)[C@H](Cc3ccccc3Cl)NC(=O)c3cccnc3)cc2)NC(=O)CC2(CCCC2)CC(=O)N[C@H](C(=O)O)CCCCNC1=O [Compound 368] | 100 to 1000 nM
O=C1CNC(=O)[C@@H](Cc2ccc(NC(=O)[C@H](Cc3ccccc3Cl)NC(=O)NCc3ccccc3)cc2)NC(=O)CC2(CCCC2)CC(=O)NCCCCCN1 [Compound 302] | 100 to 1000 nM
O=C1CNC(=O)[C@@H](Cc2ccc(NC(=O)[C@@H](NC(=O)Cc3cccc(O)c3)C3CCCCC3)cc2)NC(=O)CC2(CCCC2)CC(=O)NCCCCCN1 [Compound 378] | 100 to 1000 nM
NC(=O)CC[C@H]1NC(=O)[C@@H](Cc2ccc(NC(=O)[C@H](Cc3ccccc3Cl)NC(=O)Cc3ccccc3)cc2)NC(=O)CC2(CCCC2)CC(=O)NCCCCCNC1=O [Compound 341] | < 100 nM
O=C1CC2(CCCC2)CC(=O)N[C@H](Cc2ccc(NC(=O)[C@H](Cc3ccccc3Cl)NC(=O)Cc3ccccc3)cc2)C(=O)N[C@H](CO)C(=O)NCCCCCN1 [Compound 340] | 100 to 1000 nM

biological target: T1, recombinant human IL17a (binding to its receptor IL17R) (Homo sapiens, UniProt Q16552); experiment: IL-17 competition ELISA I (IL17a coated, IL17R/Fc binding); conditions: not given
T1 construct: purchased R&D Systems 317-ILB (IL17a); 177-IR (IL17R/Fc)
T1 sequence (Q16552 20-155 limits assumed): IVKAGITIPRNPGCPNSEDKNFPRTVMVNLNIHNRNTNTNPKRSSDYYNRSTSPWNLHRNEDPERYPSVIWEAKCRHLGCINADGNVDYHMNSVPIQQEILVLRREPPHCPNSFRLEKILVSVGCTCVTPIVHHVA
Method in brief: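 Plates coated with 20 nM recombinant human IL17a received compound dilutions and 12 nM IL17R/Fc (final) for 30 min at room temperature. Bound receptor was detected with HRP anti-human Fc and TMB, read at 450 nm. IC50 came from a 4-parameter logistic fit between no-competitor and blank controls.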

Compound | IC50
CC1(C)CC(=O)NCCCCCNC(=O)CNC(=O)[C@@H](Cc2ccc(NC(=O)[C@@H](NC(=O)Cc3ccc(O)cc3)C3CCCCC3)cc2)NC(=O)C1 [Compound 253] | 100 to 1000 nM
C[C@H]1NC(=O)[C@@H](Cc2ccc(NC(=O)[C@H](Cc3ccccc3Cl)NC(=O)c3cccnc3)cc2)NC(=O)CC2(CCCC2)CC(=O)NCCCCCNC1=O [Compound 353] | 100 to 1000 nM
C[C@H]1NC(=O)[C@@H](Cc2ccc(NC(=O)[C@@H](NC(=O)Cc3ccccc3)C3CCCCC3)cc2)NC(=O)CC2(CCCC2)CC(=O)N[C@H](C(=O)O)CCCCNC1=O [Compound 369] | < 100 nM
O=C1CNC(=O)[C@@H](Cc2ccc(NC(=O)[C@H](Cc3ccccc3Cl)NC(=O)Cc3ccccc3)cc2)NC(=O)CC2(CCCC2)CC(=O)NCCNCCN1 [Compound 338] | 100 to 1000 nM
COC(=O)[C@@H]1CCCCNC(=O)CNC(=O)[C@@H](Cc2ccc(NC(=O)[C@@H](NC(=O)c3cccnc3)C3CCCCC3)cc2)NC(=O)CC2(CCCC2)CC(=O)N1 [Compound 352] | 1000 to 10000 nM
O=C1CNC(=O)[C@@H](Cc2ccc(NC(=O)[C@H](Cc3ccccc3Cl)NC(=O)c3cccnc3)cc2)NC(=O)CC2(CCCC2)CC(=O)N[C@H](C(=O)O)CCCCN1 [Compound 266] | < 100 nM
O=C1CNC(=O)[C@@H](Cc2ccc(NC(=O)[C@H](Cc3ccccc3Cl)NC(=O)Cc3ccc(CO)cc3)cc2)NC(=O)CC2(CCCC2)CC(=O)NCCCCCN1 [Compound 218] | < 100 nM
C[C@H]1NC(=O)[C@@H](Cc2ccc(NC(=O)[C@H](Cc3ccccc3Cl)NC(=O)Cc3ccccc3)cc2)NC(=O)CC2(CCCC2)CC(=O)NCCCCCNC1=O [Compound 288] | < 100 nM
O=C1CC2(CCCC2)CC(=O)N[C@H](Cc2ccc(NC(=O)[C@H](Cc3ccccc3Cl)NC(=O)Cc3ccccc3)cc2)C(=O)N[C@H](Cc2ccccc2)C(=O)NCCCCCN1 [Compound 261] | < 100 nM
O=C1CC2(CCCC2)CC(=O)N[C@H](Cc2ccc(NC(=O)[C@H](Cc3ccccc3Cl)NC(=O)Cc3ccccc3)cc2)C(=O)NCC(=O)N[C@H](C(=O)O)CCCCN1 [Compound 339] | < 100 nM
CN1CCNC(=O)CNC(=O)[C@@H](Cc2ccc(NC(=O)[C@H](Cc3ccccc3Cl)NC(=O)Cc3ccc(O)cc3)cc2)NC(=O)CC2(CCCC2)CC(=O)NCC1 [Compound 260] | < 100 nM
C[C@H]1NC(=O)[C@@H](Cc2ccc(NC(=O)[C@H](Cc3ccccc3Cl)NC(=O)c3cccnc3)cc2)NC(=O)CC2(CCCC2)CC(=O)N[C@H](C(=O)O)CCCCNC1=O [Compound 368] | 100 to 1000 nM
O=C1CNC(=O)[C@@H](Cc2ccc(NC(=O)[C@H](Cc3ccccc3Cl)NC(=O)NCc3ccccc3)cc2)NC(=O)CC2(CCCC2)CC(=O)NCCCCCN1 [Compound 302] | < 100 nM
O=C1CNC(=O)[C@@H](Cc2ccc(NC(=O)[C@@H](NC(=O)Cc3cccc(O)c3)C3CCCCC3)cc2)NC(=O)CC2(CCCC2)CC(=O)NCCCCCN1 [Compound 378] | 100 to 1000 nM
NC(=O)CC[C@H]1NC(=O)[C@@H](Cc2ccc(NC(=O)[C@H](Cc3ccccc3Cl)NC(=O)Cc3ccccc3)cc2)NC(=O)CC2(CCCC2)CC(=O)NCCCCCNC1=O [Compound 341] | < 100 nM
O=C1CC2(CCCC2)CC(=O)N[C@H](Cc2ccc(NC(=O)[C@H](Cc3ccccc3Cl)NC(=O)Cc3ccccc3)cc2)C(=O)N[C@H](CO)C(=O)NCCCCCN1 [Compound 340] | < 100 nM

biological target: T2, biotinylated human IL-17 (binding to IL17R/Fc) (Homo sapiens, UniProt Q16552); experiment: IL-17 competition ELISA II (captured IL17R/Fc, biotinylated IL-17); conditions: not given
T2 construct: purchased R&D Systems 317-ILB (IL-17, biotinylated); 177-IR (IL17R/Fc)
T2 sequence (Q16552 20-155 limits assumed): T1 sequence (Q16552 20-155 limits assumed)
Method in brief: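 Anti-human IgG-coated plates captured IL17R/Fc (10 nM), then compound (5-fold dilutions from 1 μM) and biotinylated human IL-17 (20 nM stock) were added for 30 min at room temperature in PBST. Bound IL-17 detected by streptavidin-HRP/TMB at 450 nm. IC50 from 4-parameter logistic fit between no-competitor and blank controls.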

Compound | IC50
C[C@H]1NC(=O)[C@@H](Cc2ccc(NC(=O)[C@H](Cc3ccccc3Cl)NC(=O)c3cccnc3)cc2)NC(=O)CC2(CCCC2)CC(=O)NCCCCCNC1=O [Compound 353] | < 100 nM
C[C@H]1NC(=O)[C@@H](Cc2ccc(NC(=O)[C@@H](NC(=O)Cc3ccccc3)C3CCCCC3)cc2)NC(=O)CC2(CCCC2)CC(=O)N[C@H](C(=O)O)CCCCNC1=O [Compound 369] | < 100 nM
O=C1CNC(=O)[C@@H](Cc2ccc(NC(=O)[C@H](Cc3ccccc3Cl)NC(=O)Cc3ccccc3)cc2)NC(=O)CC2(CCCC2)CC(=O)NCCNCCN1 [Compound 338] | < 100 nM
O=C1CNC(=O)[C@@H](Cc2ccc(NC(=O)[C@H](Cc3ccccc3Cl)NC(=O)c3cccnc3)cc2)NC(=O)CC2(CCCC2)CC(=O)N[C@H](C(=O)O)CCCCN1 [Compound 266] | < 100 nM
O=C1CNC(=O)[C@@H](Cc2ccc(NC(=O)[C@H](Cc3ccccc3Cl)NC(=O)Cc3ccc(CO)cc3)cc2)NC(=O)CC2(CCCC2)CC(=O)NCCCCCN1 [Compound 218] | < 100 nM
C[C@H]1NC(=O)[C@@H](Cc2ccc(NC(=O)[C@H](Cc3ccccc3Cl)NC(=O)Cc3ccccc3)cc2)NC(=O)CC2(CCCC2)CC(=O)NCCCCCNC1=O [Compound 288] | < 100 nM
O=C1CC2(CCCC2)CC(=O)N[C@H](Cc2ccc(NC(=O)[C@H](Cc3ccccc3Cl)NC(=O)Cc3ccccc3)cc2)C(=O)NCC(=O)N[C@H](C(=O)O)CCCCN1 [Compound 339] | < 100 nM
C[C@H]1NC(=O)[C@@H](Cc2ccc(NC(=O)[C@H](Cc3ccccc3Cl)NC(=O)c3cccnc3)cc2)NC(=O)CC2(CCCC2)CC(=O)N[C@H](C(=O)O)CCCCNC1=O [Compound 368] | < 100 nM
O=C1CNC(=O)[C@@H](Cc2ccc(NC(=O)[C@H](Cc3ccccc3Cl)NC(=O)NCc3ccccc3)cc2)NC(=O)CC2(CCCC2)CC(=O)NCCCCCN1 [Compound 302] | < 100 nM
O=C1CNC(=O)[C@@H](Cc2ccc(NC(=O)[C@@H](NC(=O)Cc3cccc(O)c3)C3CCCCC3)cc2)NC(=O)CC2(CCCC2)CC(=O)NCCCCCN1 [Compound 378] | < 100 nM
NC(=O)CC[C@H]1NC(=O)[C@@H](Cc2ccc(NC(=O)[C@H](Cc3ccccc3Cl)NC(=O)Cc3ccccc3)cc2)NC(=O)CC2(CCCC2)CC(=O)NCCCCCNC1=O [Compound 341] | < 100 nM
O=C1CC2(CCCC2)CC(=O)N[C@H](Cc2ccc(NC(=O)[C@H](Cc3ccccc3Cl)NC(=O)Cc3ccccc3)cc2)C(=O)N[C@H](CO)C(=O)NCCCCCN1 [Compound 340] | < 100 nM
